Key:
EfTyrDC = target: T1, EfTyrDC (Enterococcus faecalis, UniProt Q838D6); test: HPLC conversion; assay type: biochemical; conditions: PLP, HEPES pH 7.5, 37 °C, 6 h; coupled with CvTAm
T1 construct: gene tdc; recombinant in E. coli BL21(DE3)

CvTAm = target: T2, CvTAm (Chromobacterium violaceum, UniProt Q7NWG4); test: HPLC conversion; assay type: biochemical; conditions: amine donor; pyruvate acceptor, PLP, HEPES pH 7.5, 37 °C, 6 h
T2 construct: gene CV_2025; recombinant in E. coli BL21(DE3)

NCCc1ccc(O)cc1 = test: cells, lysate or membranes; assay type: cell-based, Candidatus Nitrosopumilus salarius; conditions: apparent constant; N201S variant; copper enzyme; assay details in supplement

T1 sequence (Q838D6 whole entry): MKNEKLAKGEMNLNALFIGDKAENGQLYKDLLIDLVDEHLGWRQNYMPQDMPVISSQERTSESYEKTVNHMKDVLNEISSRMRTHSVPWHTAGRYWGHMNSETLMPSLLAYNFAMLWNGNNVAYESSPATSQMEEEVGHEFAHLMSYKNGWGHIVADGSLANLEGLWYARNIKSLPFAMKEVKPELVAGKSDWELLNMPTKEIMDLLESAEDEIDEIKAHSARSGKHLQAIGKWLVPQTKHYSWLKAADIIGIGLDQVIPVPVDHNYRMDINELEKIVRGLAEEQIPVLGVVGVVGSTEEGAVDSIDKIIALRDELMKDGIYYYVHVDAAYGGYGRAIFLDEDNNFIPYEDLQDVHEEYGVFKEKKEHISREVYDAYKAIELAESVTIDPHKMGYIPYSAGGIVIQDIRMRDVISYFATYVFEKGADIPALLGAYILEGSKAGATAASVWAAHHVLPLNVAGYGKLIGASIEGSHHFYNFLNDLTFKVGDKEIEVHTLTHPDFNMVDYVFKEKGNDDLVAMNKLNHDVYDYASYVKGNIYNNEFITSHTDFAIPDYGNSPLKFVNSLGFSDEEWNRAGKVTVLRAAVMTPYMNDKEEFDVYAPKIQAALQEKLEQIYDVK
T2 sequence (Q7NWG4 entry or part of it): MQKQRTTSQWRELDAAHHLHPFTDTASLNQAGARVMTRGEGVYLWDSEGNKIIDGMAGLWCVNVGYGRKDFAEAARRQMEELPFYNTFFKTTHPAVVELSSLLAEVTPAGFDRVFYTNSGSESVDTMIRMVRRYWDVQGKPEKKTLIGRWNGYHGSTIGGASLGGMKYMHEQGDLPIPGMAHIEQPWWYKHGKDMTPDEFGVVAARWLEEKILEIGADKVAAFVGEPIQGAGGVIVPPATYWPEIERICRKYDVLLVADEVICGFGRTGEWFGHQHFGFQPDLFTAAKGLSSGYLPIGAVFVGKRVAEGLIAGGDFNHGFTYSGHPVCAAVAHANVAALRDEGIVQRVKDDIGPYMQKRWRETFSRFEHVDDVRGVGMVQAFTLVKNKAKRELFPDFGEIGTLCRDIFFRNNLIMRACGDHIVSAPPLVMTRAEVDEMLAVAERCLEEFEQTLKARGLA

Question: N[C@@H](Cc1cccc(O)c1)C(=O)O [compound 9, meta-L-tyrosine] was tested. Which HPLC conversion (EfTyrDC) did it give?
Answer: All of the selected substrates were readily accepted by EfTyrDC and CvTAm

Question: With N[C@@H](Cc1ccc(O)c(Cl)c1)C(=O)O [compound 12, 3-Cl-L-tyrosine] as the compound, how does the HPLC conversion (EfTyrDC) read?
Answer: All of the selected substrates were readily accepted by EfTyrDC and CvTAm

Question: How did the HPLC conversion (CvTAm) turn out when NCCCc1ccccc1 [compound 14, 3-phenyl-1-propylamine] was run?
Answer: All of the selected substrates were readily accepted by EfTyrDC and CvTAm

Question: Which results are given for “CnTYR (Candidatus Nitrosopumilus salarius BD31; N201S)”?
Answer: Km (NCCc1ccc(O)cc1): 1780 µM; kcat (NCCc1ccc(O)cc1): 197.5 s⁻¹
